Measurements as given in US20230233569A1 (Revolution Medicines, Inc., priority 2020, published 2023).

Key:
Test in all cases: Ras-Raf disruption / FRET / MOA assay (BRAF RBD)
Format in all cases: biochemical
[1] = target: KRAS G12D (Homo sapiens, UniProt P01116+P62937, G12D); details: Ras-Raf disruption, with Cyclophilin A; read-out: KRAS G12D FRET data IC50
Summary of the method: (§1)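 Compound-induced Ras–Cyclophilin A ternary complex disrupting BRAF RBD binding, read as IC50 from reduced TR-FRET ratio relative to DMSO. Final: Ras-GMPPNP 12.5 nM, BRAF RBD 50 nM, Cyclophilin A 25 μM, top compound 30 μM (3-fold, 10 points); 3 h at 25 °C, then 1.5 h with detection antibodies.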

[2] = target: KRAS G12S (Homo sapiens, UniProt P01116+P62937, G12S); details: Ras-Raf disruption, with Cyclophilin A; read-out: KRAS G12S FRET data IC50
Sequence of KRAS G12S (P01116 1-169 isoform P01116-2 G12S limits assumed): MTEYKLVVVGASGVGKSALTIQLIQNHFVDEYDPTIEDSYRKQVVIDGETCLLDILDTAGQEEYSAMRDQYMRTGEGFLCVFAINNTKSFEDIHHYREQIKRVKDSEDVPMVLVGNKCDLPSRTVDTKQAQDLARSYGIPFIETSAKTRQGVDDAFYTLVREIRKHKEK
Sequence of KRAS G12S (P62937 whole entry): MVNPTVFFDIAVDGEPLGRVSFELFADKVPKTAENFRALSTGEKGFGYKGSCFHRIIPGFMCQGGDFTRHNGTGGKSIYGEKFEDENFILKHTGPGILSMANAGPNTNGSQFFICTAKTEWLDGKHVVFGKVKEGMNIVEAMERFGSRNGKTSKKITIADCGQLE
Summary of the method: as §1

[3] = target: KRAS G12V (Homo sapiens, UniProt P01116+P62937, G12V); details: Ras-Raf disruption, with Cyclophilin A; read-out: KRAS G12V FRET data IC50
Sequence of KRAS G12V (P01116 1-169 isoform P01116-2 G12V limits assumed): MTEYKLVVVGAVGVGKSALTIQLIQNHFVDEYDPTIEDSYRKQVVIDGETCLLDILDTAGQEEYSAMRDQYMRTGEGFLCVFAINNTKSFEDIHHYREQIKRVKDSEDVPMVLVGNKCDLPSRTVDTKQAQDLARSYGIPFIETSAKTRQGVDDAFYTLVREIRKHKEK
Sequence of KRAS G12V (P62937 whole entry): as the sequence (P62937 whole entry) above
Summary of the method: as §1

[4] = target: KRAS G13C (Homo sapiens, UniProt P01116+P62937, G13C); details: Ras-Raf disruption, with Cyclophilin A; read-out: KRAS G13C FRET data IC50
Sequence of KRAS G13C (P01116 1-169 isoform P01116-2 G13C limits assumed): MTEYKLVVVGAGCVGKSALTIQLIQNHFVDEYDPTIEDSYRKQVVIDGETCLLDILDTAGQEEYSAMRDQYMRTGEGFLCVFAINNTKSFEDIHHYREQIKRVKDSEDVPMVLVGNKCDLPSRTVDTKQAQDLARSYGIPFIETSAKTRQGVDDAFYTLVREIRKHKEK
Sequence of KRAS G13C (P62937 whole entry): as the sequence (P62937 whole entry) above
Summary of the method: as §1

[5] = target: KRAS G13D (Homo sapiens, UniProt P01116+P62937, G13D); details: Ras-Raf disruption, with Cyclophilin A; read-out: KRAS G13D FRET data IC50
Sequence of KRAS G13D (P01116 1-169 isoform P01116-2 G13D limits assumed): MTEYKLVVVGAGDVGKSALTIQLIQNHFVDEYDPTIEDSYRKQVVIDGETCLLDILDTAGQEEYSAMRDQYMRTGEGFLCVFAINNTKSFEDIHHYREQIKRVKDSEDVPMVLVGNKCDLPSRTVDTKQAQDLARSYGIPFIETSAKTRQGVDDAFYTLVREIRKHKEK
Sequence of KRAS G13D (P62937 whole entry): as the sequence (P62937 whole entry) above
Summary of the method: as §1

[6] = target: KRAS Q61H (Homo sapiens, UniProt P01116+P62937, Q61H); details: KRAS Q61H; read-out: KRAS Q61H FRET data IC50
Sequence of KRAS Q61H (P01116 1-169 isoform P01116-2 Q61H limits assumed): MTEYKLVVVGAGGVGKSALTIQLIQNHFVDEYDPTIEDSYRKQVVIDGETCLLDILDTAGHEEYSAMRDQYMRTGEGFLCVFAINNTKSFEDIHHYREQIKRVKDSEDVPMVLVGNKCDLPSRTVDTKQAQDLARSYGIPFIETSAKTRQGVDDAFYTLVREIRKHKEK
Sequence of KRAS Q61H (P62937 whole entry): as the sequence (P62937 whole entry) above
Summary of the method: as §1

[7] = target: KRAS WT (Homo sapiens, UniProt P01116+P62937); details: Ras-Raf disruption, with Cyclophilin A; read-out: KRAS WT FRET data IC50
Sequence of KRAS WT (P01116 1-169 isoform P01116-2 limits assumed): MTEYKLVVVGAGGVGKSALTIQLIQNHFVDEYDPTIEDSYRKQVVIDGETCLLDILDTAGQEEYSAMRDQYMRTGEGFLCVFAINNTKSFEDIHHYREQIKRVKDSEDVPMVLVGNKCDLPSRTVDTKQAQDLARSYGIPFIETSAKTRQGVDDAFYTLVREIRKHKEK
Sequence of KRAS WT (P62937 whole entry): as the sequence (P62937 whole entry) above
Summary of the method: as §1

[8] = target: NRAS G12C (Homo sapiens, UniProt P01111+P62937, G12C); details: NRAS G12C; read-out: NRAS G12C FRET data IC50
Sequence of NRAS G12C (P01111 whole entry G12C): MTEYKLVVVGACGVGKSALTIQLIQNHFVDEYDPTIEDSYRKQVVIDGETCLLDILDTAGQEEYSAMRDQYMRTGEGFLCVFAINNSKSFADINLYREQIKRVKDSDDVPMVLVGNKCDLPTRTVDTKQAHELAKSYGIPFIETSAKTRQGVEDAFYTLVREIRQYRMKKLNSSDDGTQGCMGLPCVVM
Sequence of NRAS G12C (P62937 whole entry): as the sequence (P62937 whole entry) above
Summary of the method: as §1

[9] = target: NRAS Q61K (Homo sapiens, UniProt P01111+P62937, Q61K); details: NRAS Q61K; read-out: NRAS Q61K FRET data IC50
Sequence of NRAS Q61K (P01111 whole entry Q61K): as the sequence (P01111 whole entry G12C) above, with C12G, Q61K counted along it
Sequence of NRAS Q61K (P62937 whole entry): as the sequence (P62937 whole entry) above
Summary of the method: as §1

[10] = target: NRAS Q61R (Homo sapiens, UniProt P01111+P62937, Q61R); details: NRAS Q61R; read-out: NRAS Q61R FRET data IC50
Sequence of NRAS Q61R (P01111 whole entry Q61R): as the sequence (P01111 whole entry G12C) above, with C12G, Q61R counted along it
Sequence of NRAS Q61R (P62937 whole entry): as the sequence (P62937 whole entry) above
Summary of the method: as §1

[11] = target: NRAS WT (Homo sapiens, UniProt P01111+P62937); details: NRAS WT; read-out: NRAS WT FRET data IC50
Sequence of NRAS WT (P01111 whole entry): as the sequence (P01111 whole entry G12C) above, with C12G counted along it
Sequence of NRAS WT (P62937 whole entry): as the sequence (P62937 whole entry) above
Summary of the method: as §1

[12] = target: KRAS G12C (Homo sapiens, UniProt P01116+P62937, G12C); details: Ras-Raf disruption, with Cyclophilin A; read-out: KRAS G12C FRET data IC50
Sequence of KRAS G12C (P01116 1-169 isoform P01116-2 G12C limits assumed): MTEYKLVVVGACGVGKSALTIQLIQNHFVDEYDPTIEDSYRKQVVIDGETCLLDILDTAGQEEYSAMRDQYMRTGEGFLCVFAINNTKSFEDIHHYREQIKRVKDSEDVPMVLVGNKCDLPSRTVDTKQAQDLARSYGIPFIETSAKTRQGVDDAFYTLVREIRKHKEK
Sequence of KRAS G12C (P62937 whole entry): as the sequence (P62937 whole entry) above
Summary of the method: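 TR-FRET read-out after 1.5 h with anti-His Eu-W1024 (10 nM) and anti-GST APC (50 nM), following 3 h at 25 °C of compound (top 30 μM, 3-fold, 10 points) with 25 μM Cyclophilin A, 12.5 nM GMPPNP-loaded K-Ras G12C and 50 nM BRAF RBD; IC50 reported.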

Sequence of KRAS G12D (P01116 1-169 isoform P01116-2 G12D limits assumed): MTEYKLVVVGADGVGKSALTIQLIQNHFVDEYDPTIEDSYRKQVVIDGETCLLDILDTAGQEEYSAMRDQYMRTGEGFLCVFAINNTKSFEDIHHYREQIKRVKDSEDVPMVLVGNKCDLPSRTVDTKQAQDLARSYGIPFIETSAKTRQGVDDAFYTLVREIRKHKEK
Sequence of KRAS G12D (P62937 whole entry): as the sequence (P62937 whole entry) above

| SMILES | IC50 [1] | IC50 [2] | IC50 [3] | IC50 [4] | IC50 [5] | IC50 [6] | IC50 [7] | IC50 [8] | IC50 [9] | IC50 [10] | IC50 [11] | IC50 [12] |
| --- | --- | --- | --- | --- | --- | --- | --- | --- | --- | --- | --- | --- |
| CCn1c(-c2cccnc2[C@H](C)OC)c2c3cc(ccc31)-c1cc(O)cc(c1)C[C@H](NC(=O)[C@H](C(C)C)N(C)C(=O)N1C[C@@H]3[C@H]1CCN3C(=O)[C@H]1CN1)C(=O)N1CCC[C@H](N1)C(=O)OCC(C)(C)C2 (atropisomer, axis not shown) [Example 250] | 1 to 10 µM | 0.1 to 1 µM | 0.1 to 1 µM | 0.1 to 1 µM | 1 to 10 µM | 0.1 to 1 µM | 0.1 to 1 µM | 0.1 to 1 µM | 1 to 10 µM | 1 to 10 µM | 0.1 to 1 µM | 0.01 to 0.1 µM |
| CCn1c(-c2cccnc2[C@H](C)OC)c2c3cc(ccc31)-c1cc(O)cc(c1)C[C@H](NC(=O)[C@H](C(C)C)N(C)C(=O)N1C[C@@H]3[C@H]1CCN3C(=O)[C@@H]1CN1)C(=O)N1CCC[C@H](N1)C(=O)OCC(C)(C)C2 (atropisomer, axis not shown) [Example 251] | 1 to 10 µM | 0.1 to 1 µM | 0.1 to 1 µM | 0.01 to 0.1 µM | 1 to 10 µM | 0.1 to 1 µM | 0.1 to 1 µM | 0.01 to 0.1 µM | 1 to 10 µM | 1 to 10 µM | 0.1 to 1 µM | 0.01 to 0.1 µM |
| CCn1c(-c2cccnc2[C@H](C)OC)c2c3cc(ccc31)-c1cc(O)cc(c1)C[C@H](NC(=O)[C@H](C(C)C)N(C)C(=O)N1CC[C@@H](N(C)C(=O)[C@H]3CN3)C1)C(=O)N1CCC[C@H](N1)C(=O)OCC(C)(C)C2 (atropisomer, axis not shown) [Example 252] | 0.1 to 1 µM | 0.1 to 1 µM | 0.1 to 1 µM | 0.01 to 0.1 µM | 0.1 to 1 µM | 0.01 to 0.1 µM | 0.01 to 0.1 µM | < 0.01 µM | 0.1 to 1 µM | 0.1 to 1 µM | 0.01 to 0.1 µM | < 0.01 µM |
| CCn1c(-c2cccnc2[C@H](C)OC)c2c3cc(ccc31)-c1cc(O)cc(c1)C[C@H](NC(=O)[C@H](C(C)C)N(C)C(=O)N1CC[C@@H](N(C)C(=O)[C@@H]3CN3)C1)C(=O)N1CCC[C@H](N1)C(=O)OCC(C)(C)C2 (atropisomer, axis not shown) [Example 253] | 0.1 to 1 µM | 0.1 to 1 µM | 0.1 to 1 µM | 0.01 to 0.1 µM | 0.1 to 1 µM | 0.01 to 0.1 µM | 0.01 to 0.1 µM | 0.01 to 0.1 µM | 0.1 to 1 µM | 0.1 to 1 µM | 0.01 to 0.1 µM | 0.01 to 0.1 µM |
| CCn1c(-c2cccnc2[C@H](C)OC)c2c3cc(ccc31)-c1cc(O)cc(c1)C[C@H](NC(=O)[C@H](C(C)C)N(C)C(=O)N1CC[C@H](N(C)C(=O)[C@H]3CN3)C1)C(=O)N1CCC[C@H](N1)C(=O)OCC(C)(C)C2 (atropisomer, axis not shown) [Example 254] | 0.1 to 1 µM | 0.1 to 1 µM | 0.1 to 1 µM | 0.01 to 0.1 µM | 0.1 to 1 µM | 0.01 to 0.1 µM | 0.1 to 1 µM | 0.01 to 0.1 µM | 0.1 to 1 µM | 0.1 to 1 µM | 0.1 to 1 µM | 0.01 to 0.1 µM |
| CCn1c(-c2cccnc2[C@H](C)OC)c2c3cc(ccc31)-c1cc(O)cc(c1)C[C@H](NC(=O)[C@H](C(C)C)N(C)C(=O)N1CC[C@H](N(C)C(=O)[C@@H]3CN3)C1)C(=O)N1CCC[C@H](N1)C(=O)OCC(C)(C)C2 (atropisomer, axis not shown) [Example 255] | 0.1 to 1 µM | 0.01 to 0.1 µM | 0.1 to 1 µM | 0.01 to 0.1 µM | 0.1 to 1 µM | 0.01 to 0.1 µM | 0.1 to 1 µM | 0.01 to 0.1 µM | 0.1 to 1 µM | 0.1 to 1 µM | 0.01 to 0.1 µM | 0.01 to 0.1 µM |
